According to US12281122B1, “PI3K inhibitors” (Cogent Biosciences, Inc., priority 2023, dated 2025):

Columns and labels:
[1] = system: SKBR3 (PI3Kα-Wild Type) cell line; experiment: HTRF phospho-AKT(S473) cell assay in SKBR3 cells; assay type: cell-based, human; settings: Homo sapiens, SK-BR-3, 2 hours compound incubation, PDGF-BB stimulated
Outline: (§1)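 Cells plated overnight (T47D in RPMI/10% FBS/0.2 units/mL insulin; SKBR3 in McCoy's 5A/10% FBS), then given 12-point 1:3 compound series (top 5 μM T47D, 10 μM SKBR3; ≤0.5% DMSO) for 2 h at 37° C. SKBR3 stimulated with 70 ng/ml PDGF-BB for final 15 min. Lysate pAKT(S473) by HTRF; IC50 calculated.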

[2] = system: T47D (PI3Kα-H1047R) cell line; experiment: HTRF phospho-AKT(S473) cell assay in T47D cells; assay type: cell-based, human; settings: Homo sapiens, 2 hours compound incubation
Outline: as §1

[3] = HTRF phospho-AKT(S473), SKBR3 (PI3Kα-Wild Type) cells
[4] = HTRF phospho-AKT(S473), T47D (PI3Kα-H1047R) cells
[5] = SKBR3 (PI3Kα-Wild Type) cells, HTRF phospho-AKT(S473)
[6] = T47D (PI3Kα-H1047R) cells, HTRF phospho-AKT(S473)

Row | SMILES | IC50 [1, 3] [nM] | IC50 [2, 4] [nM] | IC50 [1, 5] [nM] | IC50 [2, 6] [nM] | further results
1 | Cc1cc([C@@H](C)Nc2ccc(Cl)nc2C(=O)NS(C)(=O)=O)c2nc(-c3ccc(Nc4ccn(C)n4)nc3)n(C)c(=O)c2c1 [Compound 339, (R)-6-chloro-3-((1-(3,6-dimethyl-2-(6-((1-methyl-1H-pyrazol-3-yl)amino)pyridin-3-yl)-4-oxo-3,4-dihydroquinazolin-8-yl)ethyl)amino)-N-(methylsulfonyl) picolinamide] |  |  | 1000 to 5000 | < 250 | 
2 | Cc1cc([C@@H](C)Nc2ccc(Cl)nc2C(=O)NS(C)(=O)=O)c2nc(N3[C@@H]4CC[C@H]3C[C@@H](c3cnn(C)c3)C4)n(C)c(=O)c2c1 (racemic) [Compound 381, 6-chloro-3-(((R)-1-(3,6-dimethyl-2-((1RS,3RS,5SR)-3-(1-methyl-1H-pyrazol-4-yl)-8-azabicyclo[3.2.1]octan-8-yl)-4-oxo-3,4-dihydroquinazolin-8-yl)ethyl)amino)-N-(methylsulfonyl) picolinamide] |  |  | 1000 to 5000 | < 250 | 
3 | Cc1cc([C@@H](C)Nc2ccc(Cl)nc2C(=O)NS(C)(=O)=O)c2nc(-c3ccc4nc(C)nn4c3)n(C)c(=O)c2c1 [Compound 823, (R)-6-chloro-3-((1-(3,6-dimethyl-2-(2-methyl-[1,2,4]triazolo [1,5-a]pyridin-6-yl)-4-oxo-3,4-dihydroquinazolin-8-yl)ethyl)amino)-N-(methylsulfonyl) picolinamide] | ≥ 5000 | 500 to 1000 |  |  | 
4 | Cc1cc([C@@H](C)Nc2ccc(Cl)nc2C(=O)NS(C)(=O)=O)c2nc([C@H]3[C@@H]4CN(c5nccc(C)n5)C[C@@H]43)n(C)c(=O)c2c1 [Compound 826, 6-chloro-3-(((R)-1-(3,6-dimethyl-2-((1R,5S,6r)-3-(4-methylpyrimidin-2-yl)-3-azabicyclo[3.1.0]hexan-6-yl)-4-oxo-3,4-dihydroquinazolin-8-yl)ethyl)amino)-N-(methylsulfonyl) picolinamide] | ≥ 5000 | 250 to 500 |  |  | 
5 | Cc1cc([C@@H](C)Nc2ccc(Cl)nc2C(=O)NS(C)(=O)=O)c2nc(-c3cnc(N(C)C)nc3)n(C)c(=O)c2c1 [Compound 852, (R)-6-chloro-3-((1-(2-(2-(dimethylamino)pyrimidin-5-yl)-3,6-dimethyl-4-oxo-3,4-dihydroquinazolin-8-yl)ethyl)amino)-N-(methylsulfonyl) picolinamide] |  |  |  |  | IC50 ([1]; SKBR3 (PI3Kα-Wild Type) cell line, phospho-AKT(S473) HTRF): ≥ 5000 nM; IC50 ([2]; T47D (PI3Kα-H1047R) cell line, phospho-AKT(S473) HTRF): 250 to 500 nM
6 | Cc1cc([C@@H](C)Nc2ccc(Cl)nc2C(=O)NS(C)(=O)=O)c2nc(-c3ccc(N(C)C)nc3)n(C)c(=O)c2c1 [Compound 349, (R)-6-chloro-3-((1-(2-(6-(dimethylamino)pyridin-3-yl)-3,6-dimethyl-4-oxo-3,4-dihydroquinazolin-8-yl)ethyl)amino)-N-(methylsulfonyl) picolinamide] |  |  | 1000 to 5000 | < 250 | 
7 | Cc1cc([C@@H](C)Nc2ccc(Cl)nc2C(=O)NS(C)(=O)=O)c2nc(N3C[C@H]4C[C@@H]3CN4c3ccn(C)n3)n(C)c(=O)c2c1 [Compound 229, 6-chloro-3-(((R)-1-(3,6-dimethyl-2-((1R,4R)-5-(1-methyl-1H-pyrazol-3-yl)-2,5-diazabicyclo[2.2.1]heptan-2-yl)-4-oxo-3,4-dihydroquinazolin-8-yl)ethyl)amino)-N-(methylsulfonyl) picolinamide] |  |  | 1000 to 5000 | < 250 | 
8 | Cc1cc([C@@H](C)Nc2ccc(Cl)nc2C(=O)NS(C)(=O)=O)c2nc(C3CCN(c4ncc(C#N)cc4C)CC3)n(C)c(=O)c2c1 [Compound 837, (R)-6-chloro-3-((1-(2-(1-(5-cyano-3-methylpyridin-2-yl)piperidin-4-yl)-3,6-dimethyl-4-oxo-3,4-dihydroquinazolin-8-yl)ethyl)amino)-N-(methylsulfonyl) picolinamide] | 1000 to 5000 | 250 to 500 |  |  | 
9 | Cc1cc([C@@H](C)Nc2ccc(Cl)nc2C(=O)NS(C)(=O)=O)c2nc(N3CCC(n4ncc5cc(C#N)ccc54)CC3)n(C)c(=O)c2c1 [Compound 255, (R)-6-chloro-3-((1-(2-(4-(5-cyano-1H-indazol-1-yl)piperidin-1-yl)-3,6-dimethyl-4-oxo-3,4-dihydroquinazolin-8-yl)ethyl)amino)-N-(methylsulfonyl) picolinamide] |  |  | 1000 to 5000 | < 250 | 
10 | COc1nc(C2CCN(c3nc4c([C@@H](C)Nc5ccc(Cl)nc5C(=O)NS(C)(=O)=O)cc(C)cc4c(=O)n3C)CC2)ncc1C [Compound 562, (R)-6-chloro-3-((1-(2-(4-(4-methoxy-5-methylpyrimidin-2-yl)piperidin-1-yl)-3,6-dimethyl-4-oxo-3,4-dihydroquinazolin-8-yl)ethyl)amino)-N-(methylsulfonyl) picolinamide] | ≥ 5000 | 250 to 500 |  |  | 

Further lines, with some results ahead:

Row | IC50 [1, 3] [nM] | IC50 [2, 4] [nM] | IC50 [1, 5] [nM] | IC50 [2, 6] [nM] | SMILES | further results
11 | 1000 to 5000 | < 250 |  |  | Cc1cc([C@@H](C)Nc2ccc(Cl)nc2C(=O)NS(C)(=O)=O)c2nc(N3CCC(c4cnn(C)n4)CC3)n(C)c(=O)c2c1 [Compound 489, (R)-6-chloro-3-((1-(3,6-dimethyl-2-(4-(2-methyl-2H-1,2,3-triazol-4-yl)piperidin-1-yl)-4-oxo-3,4-dihydroquinazolin-8-yl)ethyl)amino)-N-(methylsulfonyl) picolinamide] | 
12 |  |  | 1000 to 5000 | < 250 | Cc1cc([C@@H](C)Nc2ccc(Cl)nc2C(=O)NS(C)(=O)=O)c2nc(N3CCc4nn(CC(F)(F)F)cc4C3)n(C)c(=O)c2c1 [Compound 220, (R)-6-chloro-3-((1-(3,6-dimethyl-4-oxo-2-(2-(2,2,2-trifluoroethyl)-2,4,6,7-tetrahydro-5H-pyrazolo[4,3-c]pyridin-5-yl)-3,4-dihydroquinazolin-8-yl)ethyl)amino)-N-(methylsulfonyl) picolinamide] | 
13 | ≥ 5000 | 500 to 1000 |  |  | Cc1cnc([C@H]2CCCN(c3nc4c([C@@H](C)Nc5ccc(Cl)nc5C(=O)NS(C)(=O)=O)cc(C)cc4c(=O)n3C)C2)nc1 (relative stereo) [Compound 621, 6-chloro-3-(((R)-1-(3,6-dimethyl-2-((R*)-3-(5-methylpyrimidin-2-yl)piperidin-1-yl)-4-oxo-3,4-dihydroquinazolin-8-yl)ethyl)amino)-N-(methylsulfonyl) picolinamide] | 
14 |  |  | 1000 to 5000 | 250 to 500 | CCS(=O)(=O)NC(=O)c1nc(Cl)ccc1N[C@H](C)c1cc(C)cc2c(=O)n(C)c(N3Cc4ccc(F)cc4C3)nc12 [Compound 110, (R)-6-chloro-N-(ethylsulfonyl)-3-((1-(2-(5-fluoroisoindolin-2-yl)-3,6-dimethyl-4-oxo-3,4-dihydroquinazolin-8-yl)ethyl)amino) picolinamide] | 
15 |  |  | ≥ 5000 | 250 to 500 | Cc1cc([C@@H](C)Nc2ccc(Cl)nc2C(=O)NS(C)(=O)=O)c2nc(N3CCC4(CCCCOC4)CC3)n(C)c(=O)c2c1 [Compound 328, (R)-6-chloro-3-((1-(3,6-dimethyl-4-oxo-2-(8-oxa-3-azaspiro[5.6]dodecan-3-yl)-3,4-dihydroquinazolin-8-yl)ethyl)amino)-N-(methylsulfonyl) picolinamide] | 
16 |  |  | 1000 to 5000 | < 250 | Cc1cc([C@@H](C)Nc2ccc(Cl)nc2C(=O)NS(C)(=O)=O)c2nc(N3CC[C@@H](Oc4cnn(C)c4)C3)n(C)c(=O)c2c1 [Compound 320, 6-chloro-3-(((R)-1-(3,6-dimethyl-2-((R)-3-((1-methyl-1H-pyrazol-4-yl)oxy)pyrrolidin-1-yl)-4-oxo-3,4-dihydroquinazolin-8-yl)ethyl)amino)-N-(methylsulfonyl) picolinamide] | 
17 |  |  | 1000 to 5000 | < 250 | Cc1cc([C@@H](C)Nc2ccc(Cl)nc2C(=O)NS(C)(=O)=O)c2nc(N3Cc4cn(C5(C(F)(F)F)CC5)nc4C3)n(C)c(=O)c2c1 [Compound 185, (R)-6-chloro-3-((1-(3,6-dimethyl-4-oxo-2-(2-(1-(trifluoromethyl)cyclopropyl)-2,6-dihydropyrrolo[3,4-c]pyrazol-5(4H)-yl)-3,4-dihydroquinazolin-8-yl)ethyl)amino)-N-(methylsulfonyl) picolinamide] | 
18 | ≥ 5000 | 250 to 500 |  |  | Cc1cc([C@@H](C)Nc2ccc(Cl)nc2C(=O)NS(C)(=O)=O)c2nc(N3CC[C@H](Oc4ccc(F)cn4)C3)n(C)c(=O)c2c1 [Compound 513, 6-chloro-3-(((R)-1-(2-((S)-3-((5-fluoropyridin-2-yl)oxy)pyrrolidin-1-yl)-3,6-dimethyl-4-oxo-3,4-dihydroquinazolin-8-yl)ethyl)amino)-N-(methylsulfonyl) picolinamide] | 
19 |  |  | 1000 to 5000 | < 250 | Cc1cc([C@@H](C)Nc2ccc(Cl)nc2C(=O)NS(C)(=O)=O)c2nc(N3Cc4cn(C)nc4C3)n(C)c(=O)c2c1 [Compound 396, (R)-6-chloro-3-((1-(3,6-dimethyl-2-(2-methyl-2,6-dihydropyrrolo[3,4-c]pyrazol-5(4H)-yl)-4-oxo-3,4-dihydroquinazolin-8-yl)ethyl)amino)-N-(methylsulfonyl) picolinamide] | 
20 |  |  | 1000 to 5000 | < 250 | Cc1cc([C@@H](C)Nc2ccc(Cl)nc2C(=O)NS(C)(=O)=O)c2nc(N3C[C@@H]4[C@H](C3)[C@H]4c3nn(C)cc3C)n(C)c(=O)c2c1 [Compound 415, 6-chloro-3-(((R)-1-(2-((1R,5S,6R)-6-(1,4-dimethyl-1H-pyrazol-3-yl)-3-azabicyclo[3.1.0]hexan-3-yl)-3,6-dimethyl-4-oxo-3,4-dihydroquinazolin-8-yl)ethyl)amino)-N-(methylsulfonyl) picolinamide] | 
